Reference: publication PMC3468400, “Pharmacokinetic profiles of artesunate following multiple intravenous doses of 2, 4, and 8 mg/kg in healthy volunteers: Phase 1b study” (Malaria Journal, 2012)
Where two headings read alike, the source gives them in different places.

Experiments:
[1] = tested on: severe falciparum malaria; conditions: SEAQUAMAT, severe malaria patients, intravenous treatment; cited from earlier work
[2] = tested on: asexual blood stage parasites; conditions: cited from earlier work
[3] = Pharmacokinetics of dihydroartemisinin (DHA), active metabolite, in plasma after multiple intravenous AS doses, non-compartmental analysis; format: in vivo, human; conditions: for Total AUCD1-D3: DHA, days 1-3; for AUC: Mean AUC of DHA, range over doses, AS 2-8 mg/kg iv
Description: The study was a double blind, ascending multiple doses, alternating group, safety, tolerance, and PK study. […] When the injection was completed, the study nurse recorded tolerance of injection to include both inspection of site and subjects’ responses. Subjects were provided a light lunch at approximately 4 hours after dosing. Normal activities, excluding strenuous exercise, were permitted four hours after dosing. […] During the multiple-dose period, samples were collected immediately before morning dose on days 2 and 3 for additional trough values. All the samples were stored at −80 °C until shipment and were then shipped to a bio-analytical GLP laboratory, Midwest Research Institute (MRI), in Kansas City, MO, USA. The human use protocol numbers for the Phase 1 trial are: USUHS #G183RW; WRIAR #1128; and HSRRB #A-13276.
The analytes were extracted from human plasma with ethyl acetate. […] The reconstituted extracts were analysed on a Micromass Quattro II Mass Spectrometer in the positive ion electrospray ionization (+ESI) mode. […] This method employed a Varian Pursuit C18 column (150 x 2.0 mm, 5-μm particle size) and a gradient elution with the following mobile phases: A: 10 mM ammonium acetate in water with 1% formic acid and B: 10 mM ammonium acetate in acetonitrile with 1% formic acid, for the chromatographic separation.
Calibration standards and QC samples were analysed to evaluate the performance of the assay.
The maximum concentration in plasma for each subject was read directly from the experimental values. […] The values of the following PK parameters were derived by a non-compartmental method: the half-life (t½); mean residence time (MRT); the AUC from time zero to the last sampling time (AUCt); the AUC from time zero extrapolated to infinity (AUCinf); relative total systemic clearance (CL/F_obs); and volume of distribution during steady state (Vss/F_obs). A drug accumulation index was estimated from the AUC value on day 3 divided by the AUC value on day 1 (first multiple dose administration).

[4] = human, plasma, intravenous, all days and dose cohorts

## C=C[C@H]1C[N@@]2CC[C@H]1C[C@H]2[C@H](O)c1ccnc2ccc(OC)cc12 [quinine]
[1]
  mortality rate: 22%

## C[C@H]1[C@@H](O)O[C@@H]2O[C@@]3(C)CC[C@H]4[C@H](C)CC[C@@H]1[C@@]24OO3 [DHA, dihydroartemisinin]
[2]
  time to complete inhibition of parasite growth: within two to four hours
[3]; 4 mg/kg cohort
  Mean peak concentrations of DHA over the three days, range: 2923 to 3018 ng/mL
[3]; 8 mg/kg cohort
  Mean peak concentrations of DHA over the three days, range: 5762 to 6056 ng/mL
[3]; AS 2 mg/kg iv daily for 3 days, mean (CV%), n = 6
  Total AUCD1-D3: 6520 (18)
[3]; AS 4 mg/kg iv daily for 3 days, mean (CV%), n = 6
  Total AUCD1-D3: 12092 (20)
[3]; AS 8 mg/kg iv daily for 3 days, mean (CV%), n = 6
  Total AUCD1-D3: 27635 (34)
[3]; after each short-term infusion of AS, all volunteers
  time DHA detected in plasma: until six hours
[3]; human, plasma, intravenous, 2 mg/kg, Mean AUCinf of DHA over three days, range, 2 mg/kg cohort
  AUC(0-inf): 2020 to 2380 ng·h/mL
[3]; human, plasma, intravenous, 4 mg/kg, Mean AUCinf of DHA over three days, range, 4 mg/kg cohort
  AUC(0-inf): 3740 to 4390 ng·h/mL
[3]; human, plasma, intravenous, 8 mg/kg, Mean AUCinf of DHA over three days, range, 8 mg/kg cohort
  AUC(0-inf): 8730 to 9700 ng·h/mL
[3]; [4]
  CL/F: 14.6 to 19.4 mL/min/kg
  Tmax: 0.16 to 0.29 h
[3]; human, plasma, iv, 2 mg/kg
  Cmax: 1740 ng/mL
[3]; human, plasma, iv, 2 mg/kg, Day 1, DHA after AS 2 mg/kg iv daily for 3 days, 2 min infusion, mean (CV%), n = 6, NCA
  MRT: 1.41 h
[3]; human, plasma, iv, 2 mg/kg, Day 1, DHA after AS 2 mg/kg iv daily for 3 days, 2 min infusion, mean (CV%), n = 6, NCA, read-out: AUCinf
  AUC(0-inf): 2120 ng·h/mL
[3]; human, plasma, iv, 2 mg/kg, Day 1, DHA after AS 2 mg/kg iv daily for 3 days, 2 min infusion, mean (CV%), n = 6, NCA, read-out: t1/2 elimination (converted)
  half-life: 1.19 h
[3]; human, plasma, iv, 2 mg/kg, Day 3, DHA after AS 2 mg/kg iv daily for 3 days, 2 min infusion, mean (CV%), n = 6, NCA
  MRT: 1.39 h
[3]; human, plasma, iv, 2 mg/kg, read-out: Tmax
  Tmax: 0.29 h
[3]; human, plasma, iv, 4 mg/kg
  Cmax: 3020 ng/mL
[3]; human, plasma, iv, 4 mg/kg, Day 1, DHA after AS 4 mg/kg iv daily for 3 days, 2 min infusion, mean (CV%), n = 6, NCA
  MRT: 1.91 h
[3]; human, plasma, iv, 4 mg/kg, Day 1, DHA after AS 4 mg/kg iv daily for 3 days, 2 min infusion, mean (CV%), n = 6, NCA, read-out: AUCinf
  AUC(0-inf): 4390 ng·h/mL
[3]; human, plasma, iv, 4 mg/kg, Day 1, DHA after AS 4 mg/kg iv daily for 3 days, 2 min infusion, mean (CV%), n = 6, NCA, read-out: t1/2 elimination (converted)
  half-life: 1.74 h
[3]; human, plasma, iv, 4 mg/kg, Day 3, DHA after AS 4 mg/kg iv daily for 3 days, 2 min infusion, mean (CV%), n = 6, NCA
  MRT: 1.57 h
[3]; human, plasma, iv, 4 mg/kg, Day 3, DHA after AS 4 mg/kg iv daily for 3 days, 2 min infusion, mean (CV%), n = 6, NCA, read-out: AUCinf
  AUC(0-inf): 3960 ng·h/mL
[3]; human, plasma, iv, 4 mg/kg, Day 3, DHA after AS 4 mg/kg iv daily for 3 days, 2 min infusion, mean (CV%), n = 6, NCA, read-out: t1/2 elimination (converted)
  half-life: 1.24 h
[3]; human, plasma, iv, 4 mg/kg, read-out: Tmax
  Tmax: 0.25 h
[3]; human, plasma, iv, 8 mg/kg
  Cmax: 6060 ng/mL
[3]; human, plasma, iv, 8 mg/kg, Day 1, DHA after AS 8 mg/kg iv daily for 3 days, 2 min infusion, mean (CV%), n = 6, NCA
  MRT: 1.81 h
[3]; human, plasma, iv, 8 mg/kg, Day 1, DHA after AS 8 mg/kg iv daily for 3 days, 2 min infusion, mean (CV%), n = 6, NCA, read-out: AUCinf
  AUC(0-inf): 9700 ng·h/mL
[3]; human, plasma, iv, 8 mg/kg, Day 1, DHA after AS 8 mg/kg iv daily for 3 days, 2 min infusion, mean (CV%), n = 6, NCA, read-out: t1/2 elimination (converted)
  half-life: 1.42 h
[3]; human, plasma, iv, 8 mg/kg, Day 3, DHA after AS 8 mg/kg iv daily for 3 days, 2 min infusion, mean (CV%), n = 6, NCA
  MRT: 1.78 h
[3]; human, plasma, iv, 8 mg/kg, Day 3, DHA after AS 8 mg/kg iv daily for 3 days, 2 min infusion, mean (CV%), n = 6, NCA, read-out: AUCinf
  AUC(0-inf): 9200 ng·h/mL
[3]; human, plasma, iv, 8 mg/kg, Day 3, DHA after AS 8 mg/kg iv daily for 3 days, 2 min infusion, mean (CV%), n = 6, NCA, read-out: t1/2 elimination (converted)
  half-life: 1.34 h
[3]; human, plasma, iv, 8 mg/kg, mean elimination half-life of DHA, range, range of means over three days and AS 2, 4, 8 mg/kg iv doses
  half-life: 1.23 to 1.63 h
[3]; human, plasma, iv, 8 mg/kg, read-out: Tmax
  Tmax: 0.25 h
[3]; human, plasma, iv, day 1
  AUC: 2120 to 9700 ng·h/mL
[3]; human, plasma, iv, day 3
  AUC: 2380 to 9200 ng·h/mL
[3]; range of means over three days and AS 2, 4, 8 mg/kg iv doses
  mean elimination half-life of DHA, range: 1.19 to 1.91 h
